For orientation: Ki means a dissociation constant, usually derived from enzyme kinetics or from competition with a known ligand.

The values that follow come from patent US7253165B2, “Benzisoxazolyl-, pyridoisoxazolyl-and benzthienyl-phenoxy derivatives useful as D4 antagonists” (Aventis Pharmaceuticals Inc., priority 1999, dated 2007).

Experiment [1] addresses T1, human D4 receptor (D4.2 sub-type) (Homo sapiens, UniProt P21917, DEL265-296).
T1 sequence (P21917 with tags, fused parts or gaps DEL265-296): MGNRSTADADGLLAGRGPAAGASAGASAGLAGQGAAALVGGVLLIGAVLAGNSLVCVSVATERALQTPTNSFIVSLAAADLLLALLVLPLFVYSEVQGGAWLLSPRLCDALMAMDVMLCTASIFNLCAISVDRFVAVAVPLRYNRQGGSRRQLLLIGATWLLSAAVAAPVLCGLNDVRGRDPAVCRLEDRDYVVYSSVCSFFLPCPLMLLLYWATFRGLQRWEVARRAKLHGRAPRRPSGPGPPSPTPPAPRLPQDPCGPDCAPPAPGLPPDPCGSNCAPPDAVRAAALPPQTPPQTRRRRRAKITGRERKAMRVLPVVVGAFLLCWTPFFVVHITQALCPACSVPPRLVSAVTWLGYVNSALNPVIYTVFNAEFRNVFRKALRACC
The experiment is described as follows: D4 receptor binding assay, displacement of 3H-spiperone. The conditions noted are these: 3H-spiperone 0.25 nM; for Ki: membranes of HEK cells transfected with human D4.2, * = HCl salt, read-out: D4 RBA Ki; for D4 RBA % Inhibition (@ 1 μM): 1 μM test compound. The protocol:
D4 receptor-binding affinities of the compounds were evaluated according to their ability to reduce binding of ^3H-spiperone as compared to the reference compound clozapine. The potency of the test compound to reduce ^3H-spiperone binding directly correlated to its binding affinity for the receptor.
[…] (human embryonic kidney) cells stably transfected with human D4 receptor (D4.2 sub-type) were grown in NUNC cell factories for 5 days (75% confluency) without a media change and removed with versene (approximately 19 mg of cells per cell factory tray). The cells were then centrifuged in a Sorval centrifuge for 10 min, 5000 rpm (GS3 rotor) and the pellets quickly frozen in liquid nitrogen and stored at −80° C. until used in binding assay. When used in the assay, cells were thawed on ice for 20 min and then 10 mL of incubation buffer (50 mM Tris, 1 mM EDTA, 4 mM MgCl2, 5 mM KCl, 1.5 mM CaCl2, 120 mM NaCl, pH 7.4) was added. The cells were then vortexed to resuspend pellet and homogenized with a Kinematica, CH-6010 Kriens-LU, homogenizer for 15 seconds at setting 7. Concentration of receptor protein was determined using the Pierce BCA assay.
The incubation was started by the addition of 100 μl (50 μg protein) membrane homogenate to a solution of 300 μl incubation buffer and 100 μl (0.25 nM final conc.) ^3H-spiperone (90 Ci/mmol, Amersham, diluted in borosilicate glass vial) in 96-well polypropylene plates (1 ML per well). The plates were vortexed and incubated at room temperature for 90 minutes. The binding reaction was stopped by filtering using a Packard Harvester. The samples were filtered under vacuum over glass fibre filter plates (Whatman GF/B) presoaked for 2 hours in 0.3% polyethylenimine (PEI) in 50 mM Tris buffer (pH 7.4). The filters were then washed 6 times with 7 mL ice cold 50 mM Tris buffer (pH 7.4). The filter plates were dried overnight and 35 μl of Microscint-O (Packard) was added. The plates were sealed and counted in the Packard Top Count (3 minutes per well).
The incubation was started by the addition of 100 μl (50 μg protein) membrane homogenate to a solution of 200 μl incubation buffer, 100 μl ^3H-spiperone (90 Ci/mmol, Amersham, diluted in borosilicate glass vial to 0.25 nM final conc.) and 100 μl (30 μM final conc.) of fresh dopamine (Research Biochemicals Inc., light protected and dissolved in incubation buffer) in 96-well polypropylene plates (1 mL per well). The plates were vortexed and incubated at room temperature for 90 minutes at which time the binding reaction was stopped by filtering. The filters were washed and counted using the same procedure as in the total binding assay described above to give the non-specific binding value (NSB).
The incubation was started by the addition, in 96-well polypropylene plates (1 mL per well), of 100 μl (50 μg protein) membrane homogenate to a solution of 200 μl incubation buffer, 100 μl (0.25 nM final-conc.) ^3H-spiperone (90 Ci/mmol, Amersham, diluted in borosilicate glass vial) and 100 μl of test compound that was prepared from 1 mM stock dissolved in DMSO and stored at −20° C. in polypropylene cryogenic storage vials until dilution in incubation buffer in 96-well polypropylene plates. The plates were vortexed and incubated at room temperature for 90 minutes at which time the binding reaction was stopped by filtering. The filters were washed and counted using the same procedure as in the total binding assay described above to give the displacement binding value (BD).
The test compounds were initially assayed at 1 and 0.1 μM and then at a range of concentrations chosen such that the middle dose would cause about 50% inhibition of ^3H-spiperone binding. Specific binding in the absence of test compound (B0) was the difference of total binding (BT) minus non-specific binding (NSB) and similarly specific binding (in the presence of test compound) (B) was the difference of displacement binding (BD) minus non-specific binding (NSB). […]

Experiment [2] has as its system MK-801 induced stereotypy (locomotion and falling behavior) in CD-1 or C57 male mice. The experiment is described as follows: MK-801 Stereotypy in Mice. The conditions noted are these: In Vivo Method PO, MK-801 0.2 mg/kg; for inhibition in vivo at 20 mg/kg: Mus musculus, read-out: Antag. of MK 801 Stereotypy % Inhib. @ 20 mg/kg. Here is the method: Mk-801 dose-dependently induces characteristic stereotypy marked by locomotion and falling behavior. This MK-801 induced behavior can be antagonized by novel neuroleptic agents. This assay can also assess time course effects following drug administration.
CD-1 or C57 male mice are individually placed in activity boxes (8 mice/drug) and allowed to acclimate for 60 minutes. The mice are then administered test compounds either i.p., s.c., or p.o., at 15, 30, or 60 minutes prior to MK-801 (0.2 mg/kg) administration. Mice are observed for the presence of locomotion and falling behaviors 15 minutes following MK-801. For the duration of action studies the test compounds are administered i.p., s.c., or p.o., at 30, 60, 120, 180, and 240 minutes prior to MK-801 administration.

Each structure is given as a SMILES string.

In the case of `Fc1ccc2c(-c3ccc(OCCCN4CCCCCCC4)cc3)noc2c1` [Example 157], the Ki in experiment [1] was 8.35 nM. The inhibition in vivo at 20 mg/kg in experiment [2] turned out to be 50%.
In the case of `O[C@@H](COc1ccc(-c2noc3cc(F)ccc23)cc1)CN1CCC(Oc2cccc(Cl)c2)CC1` [Example 90, (R)-1-[4-(3-chloro-phenoxy)-piperidin-1-yl]-3-[4-(6-fluoro-benzo[d]isoxazol-3-yl)-phenoxy]-propan-2-ol], the Ki in experiment [1] was found to be 27 nM.
In the case of `O[C@@H](COc1ccc(-c2noc3cc(F)ccc23)cc1)CN1CCC(O)(c2ccccc2)CC1` [Example 38, (R)-1-{3-[4-(6-fluoro-benzo[d]isoxazol-3-yl)-phenoxy]-2-hydroxy-propyl}-4-phenyl-piperidin-4-ol], the “D4 RBA % Inhibition (@ 1 μM)” value in experiment [1] is 54%.
The same measure, in the same setting: the result for `O[C@@H](COc1cccc(-c2noc3ncccc23)c1)CN1CCC(Oc2cccc(Cl)c2)CC1` [Example 102, (R)-1-[4-(3-chloro-phenoxy)-piperidin-1-yl]-3-(3-isoxazolo[5,4-b]pyridin-3-yl-phenoxy)-propan-2-ol] reads 59%.
Turning to `CN(CCc1ccccc1)C[C@@H](O)COc1ccc(-c2noc3cc(F)ccc23)cc1` [Example 6], the inhibition constant (Ki) in experiment [1] worked out at 42 nM.
`CN(CCc1ccccc1)C[C@@H](O)COc1ccc(-c2noc3cc(F)ccc23)cc1` [Example 27, (R)-1-[4-(6-fluoro-benzo[d]isoxazol-3-yl)-phenoxy]-3-(methyl-phenethyl-amino)-propan-2-ol]: the “D4 RBA % Inhibition (@ 1 μM)” value in experiment [1] is 66%.
With `Fc1ccc2c(-c3ccc(OCCCN4CCCCCC4)cc3)noc2c1` [Example 156], the Ki in experiment [1] came to 3.88 nM. The inhibition in vivo at 20 mg/kg in experiment [2] was found to be 50%.
As for `O[C@@H](COc1ccc(-c2noc3cc(F)ccc23)cc1)CN1CCN(c2ccccn2)CC1` [Example 29, (R)-1-[4-(6-fluoro-benzo[d]isoxazol-3-yl)-phenoxy]-3-(4-pyridin-2-yl-piperazin-1-yl)-propan-2-ol], in experiment [1], the “D4 RBA % Inhibition (@ 1 μM)” value amounted to 41%.
In the case of `CC1CCN(CCCOc2ccc(-c3noc4cc(F)ccc34)cc2)CC1` [Example 153], the Ki in experiment [1] is 3.8 nM. Further, the inhibition in vivo at 20 mg/kg in experiment [2] was 75%.
The corresponding values for `Fc1ccc2c(-c3ccc(OCCCNCC4CCCCC4)cc3)noc2c1` [Example 158] are 8.42 nM and 37.5%.
Consider `O[C@@H](COc1cccc(-c2noc3ncccc23)c1)CN1CCN(c2ncccn2)CC1` [Example 106, (R)-1-(3-isoxazolo[5,4-b]pyridin-3-yl-phenoxy)-3-(4-pyrimidin-2-yl-piperazin-1-yl)-propan-2-ol], for which the inhibition constant (Ki) in experiment [1] came out at 8.4 nM.
Consider `CCCC1CCN(CCCOc2ccc(-c3noc4cc(F)ccc34)cc2)CC1` [Example 154], for which the Ki in experiment [1] stood at 11.2 nM. In addition, the inhibition in vivo at 20 mg/kg in experiment [2] was found to be 25%.
`Fc1ccc2c(-c3ccc(OCCN4CCC5(CC4)OCCO5)cc3)noc2c1` [Example 152]: the Ki in experiment [1] turned out to be 7.1 nM.
As for `CCCC1CCN(CCOc2ccc(-c3noc4cc(F)ccc34)cc2)CC1` [Example 146], in experiment [1], the Ki turned out to be 34 nM.
With `O[C@@H](COc1cccc(-c2noc3cc(F)ccc23)c1)CN1CCN(c2ncccn2)CC1` [Example 69, (R)-1-[3-(6-fluoro-benzo[d]isoxazol-3-yl)-phenoxy]-3-(4-pyrimidin-2-yl-piperazin-1-yl)-propan-2-ol], the Ki in experiment [1] was determined as 14 nM.
`O[C@@H](COc1ccc(-c2noc3cc(F)ccc23)cc1)CN1CCC(c2noc3cc(F)ccc23)CC1` [Example 34, (R)-1-[4-(6-fluoro-benzo[d]isoxazol-3-yl)-phenoxy]-3-[4-(6-fluoro-benzo[d]isoxazol-3-yl)-piperidin-1-yl]-propan-2-ol]: the “D4 RBA % Inhibition (@ 1 μM)” value in experiment [1] is recorded as 46%.
For the molecule `O[C@H](CNC1Cc2ccccc2C1)COc1ccc(-c2noc3cc(F)ccc23)cc1` [Example 89, (R)-1-[4-(6-fluoro-benzo[d]isoxazol-3-yl)-phenoxy]-3-(indan-2-ylamino)-propan-2-ol], the Ki in experiment [1] came to 1.3 nM. Also, in experiment [2], the “Antag. of MK 801 Stereotypy % Inhib. @ 20 mg/kg” value is given as 25%.
For the molecule `O[C@H](CNC1CCc2ccccc21)COc1ccc(-c2noc3cc(F)ccc23)cc1` (stereo partly drawn) [Example 72, (R)-1-[4-(6-fluoro-benzo[d]isoxazol-3-yl)-phenoxy]-3-(indan-1-ylamino)-propan-2-ol], in experiment [1], the Ki came out at 30 nM.
Consider `O[C@@H](COc1ccc(-c2noc3cc(F)ccc23)cc1)CN1CCN(c2ccccn2)CC1` [Example 8], for which, in experiment [1], the Ki came to 9 nM. Also, in experiment [2], the inhibition in vivo at 20 mg/kg was 37.5%.
As to `O[C@H](CNCc1cccs1)COc1ccc(-c2noc3cc(F)ccc23)cc1` [Example 73, (R)-1-[4-(6-fluoro-benzo[d]isoxazol-3-yl)-phenoxy]-3-[(thiophen-2-ylmethyl)-amino]-propan-2-ol], the inhibition constant (Ki) in experiment [1] worked out at 13 nM.
As to `COc1cccc(CNC[C@@H](O)COc2ccc(-c3noc4cc(F)ccc34)cc2)c1` [Example 80, (R)-1-[4-(6-fluoro-benzo[d]isoxazol-3-yl)-phenoxy]-3-(3-methoxy-benzylamino)-propan-2-ol], the “D4 RBA % Inhibition (@ 1 μM)” value in experiment [1] turned out to be 76%.
As to `O[C@H](CNCc1ccc(F)cc1)COc1ccc(-c2csc3ccccc23)cc1` [Example 96, (R)-1-(4-benzo[b]thiophen-3-yl-phenoxy)-3-(4-fluoro-benzylamino)-propan-2-ol], in experiment [1], the Ki turned out to be 26 nM.
